Data from ChEMBL document CHEMBL1817669, “Design and pharmacological evaluation of PF-4840154, a non-electrophilic reference agonist of the TrpA1 channel” (Bioorg Med Chem Lett, 2011).
pEC50: −log10 of the molar value. ≈ marks a conversion by molar mass, not a printed value. Calls of active or inactive are those of the source. No cut-off for these calls is given here.

Experiments:
[1] = molecular target: Transient receptor potential cation channel subfamily A member 1 (Rattus norvegicus, UniProt Q6RI86); assay: Agonist activity at rat TRPA1 channel expressed in HEK293 cells assessed as calcium influx measured at every 1 second for 60 seconds by fluorescence analysis; assay type: functional, cell-based
[2] = molecular target: Transient receptor potential cation channel subfamily A member 1 (Homo sapiens, UniProt O75762); assay: Agonist activity at human TRPA1 channel expressed in HEK293 cells assessed as calcium influx measured at every 1 second for 60 seconds by fluorescence analysis; assay type: functional, cell-based; conditions: for pEC50: read-out: EC50; for EC50: hek293
[3] = Aqueous solubility of the compound at pH 7.4; assay type: physicochemical
[4] = Inhibition of sigma receptor at 1.1 uM
[5] = molecular target: D(3) dopamine receptor (Homo sapiens) (UniProt P35462); assay: Inhibition of dopamine D3 receptor at 1.9 uM
[6] = Inhibition of chloride channel at 1.5 uM
[7] = molecular target: Sodium-dependent dopamine transporter (Homo sapiens) (UniProt Q01959); assay: Inhibition of dopamine transporter at 1.6 uM
[8] = molecular target: Sodium-dependent noradrenaline transporter (Homo sapiens) (UniProt P23975); assay: Inhibition of noradrenaline transporter at 2.8 uM
[9] = molecular target: Transient receptor potential cation channel subfamily V member 1 (Homo sapiens) (UniProt Q8NER1); assay: Agonist activity at human TRPV1 receptor; assay type: functional
[10] = molecular target: Transient receptor potential cation channel subfamily V member 1 (Homo sapiens) (UniProt Q8NER1); assay: Antagonist activity at human TRPV1 receptor; assay type: functional
[11] = molecular target: Transient receptor potential cation channel subfamily V member 4 (Homo sapiens) (UniProt Q9HBA0); assay: Agonist activity at human TRPV4 receptor; assay type: functional
[12] = molecular target: Transient receptor potential cation channel subfamily V member 4 (Homo sapiens) (UniProt Q9HBA0); assay: Antagonist activity at human TRPV4 receptor; assay type: functional
[13] = molecular target: Transient receptor potential cation channel subfamily M member 8 (Homo sapiens) (UniProt Q7Z2W7); assay: Agonist activity at human TRPM8 receptor; assay type: functional
[14] = molecular target: Transient receptor potential cation channel subfamily M member 8 (Homo sapiens) (UniProt Q7Z2W7); assay: Antagonist activity at human TRPM8 receptor; assay type: functional
Mus musculus [15] = species: Mus musculus; assay: Antinociceptive activity against formalin-induced inflammatory pain in Trpa1-positive CD1 mouse assessed as increase in time spent in paw licking at 30 nmol, intraplantar measured every 5 mins for 60 mins; assay type: functional, organism-based
Mus musculus [16] = species: Mus musculus; assay: Antinociceptive activity against formalin-induced inflammatory pain in Trpa1-knock out CD1 mouse assessed as increase in time spent in paw licking at 30 nmol, intraplantar measured every 5 mins for 60 mins; assay type: functional, organism-based
Mus musculus [17] = assay: Antinociceptive activity against formalin-induced inflammatory pain in Trpa1-positive CD1 mouse assessed as increase in time spent in paw licking at 30 nmol, intraplantar measured every 5 mins for 60 mins in pretreated with 100 mg/kg Trpa1 antagonist HC003031; assay type: functional, organism-based; parameters: dose 100 mg/kg
[18] = molecular target: Transient receptor potential cation channel subfamily A member 1 (Rattus norvegicus) (UniProt Q6RI86); assay: Agonist activity at rat TRPA1 channel expressed in HEK293 cells assessed as calcium influx at 10 uM measured at every 1 second for 60 seconds by fluorescence analysis; assay type: functional, cell-based
Sequence of Transient receptor potential cation channel subfamily A member 1 (Rattus norvegicus) (Q6RI86 whole entry): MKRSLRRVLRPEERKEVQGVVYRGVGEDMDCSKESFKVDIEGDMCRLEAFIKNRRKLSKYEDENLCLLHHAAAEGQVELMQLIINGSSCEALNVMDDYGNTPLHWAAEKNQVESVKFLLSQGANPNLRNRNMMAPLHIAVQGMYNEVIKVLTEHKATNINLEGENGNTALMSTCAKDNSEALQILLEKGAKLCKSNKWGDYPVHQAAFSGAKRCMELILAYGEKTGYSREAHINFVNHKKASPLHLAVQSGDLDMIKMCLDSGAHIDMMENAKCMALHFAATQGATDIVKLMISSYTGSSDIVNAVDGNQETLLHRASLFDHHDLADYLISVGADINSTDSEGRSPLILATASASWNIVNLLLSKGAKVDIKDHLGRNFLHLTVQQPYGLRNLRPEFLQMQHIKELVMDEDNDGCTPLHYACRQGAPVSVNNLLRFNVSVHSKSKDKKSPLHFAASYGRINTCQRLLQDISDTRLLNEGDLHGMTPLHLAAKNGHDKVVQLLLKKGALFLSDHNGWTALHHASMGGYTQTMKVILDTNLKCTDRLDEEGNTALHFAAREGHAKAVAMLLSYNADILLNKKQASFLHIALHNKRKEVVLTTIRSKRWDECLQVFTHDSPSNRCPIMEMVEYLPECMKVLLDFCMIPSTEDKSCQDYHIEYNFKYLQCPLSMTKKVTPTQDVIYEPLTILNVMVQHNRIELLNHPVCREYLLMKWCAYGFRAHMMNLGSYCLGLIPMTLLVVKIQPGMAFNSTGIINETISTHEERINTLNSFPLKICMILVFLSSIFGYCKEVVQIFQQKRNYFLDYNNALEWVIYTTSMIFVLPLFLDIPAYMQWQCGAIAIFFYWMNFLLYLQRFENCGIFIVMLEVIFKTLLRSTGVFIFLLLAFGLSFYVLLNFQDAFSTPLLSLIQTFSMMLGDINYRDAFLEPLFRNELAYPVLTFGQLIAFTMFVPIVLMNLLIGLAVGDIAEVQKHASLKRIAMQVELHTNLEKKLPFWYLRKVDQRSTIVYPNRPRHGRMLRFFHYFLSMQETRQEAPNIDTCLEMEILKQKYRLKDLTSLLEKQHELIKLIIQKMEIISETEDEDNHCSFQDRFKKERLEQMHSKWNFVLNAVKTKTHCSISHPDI

Sequence of Transient receptor potential cation channel subfamily A member 1 (Homo sapiens, UniProt O75762) (O75762 whole entry): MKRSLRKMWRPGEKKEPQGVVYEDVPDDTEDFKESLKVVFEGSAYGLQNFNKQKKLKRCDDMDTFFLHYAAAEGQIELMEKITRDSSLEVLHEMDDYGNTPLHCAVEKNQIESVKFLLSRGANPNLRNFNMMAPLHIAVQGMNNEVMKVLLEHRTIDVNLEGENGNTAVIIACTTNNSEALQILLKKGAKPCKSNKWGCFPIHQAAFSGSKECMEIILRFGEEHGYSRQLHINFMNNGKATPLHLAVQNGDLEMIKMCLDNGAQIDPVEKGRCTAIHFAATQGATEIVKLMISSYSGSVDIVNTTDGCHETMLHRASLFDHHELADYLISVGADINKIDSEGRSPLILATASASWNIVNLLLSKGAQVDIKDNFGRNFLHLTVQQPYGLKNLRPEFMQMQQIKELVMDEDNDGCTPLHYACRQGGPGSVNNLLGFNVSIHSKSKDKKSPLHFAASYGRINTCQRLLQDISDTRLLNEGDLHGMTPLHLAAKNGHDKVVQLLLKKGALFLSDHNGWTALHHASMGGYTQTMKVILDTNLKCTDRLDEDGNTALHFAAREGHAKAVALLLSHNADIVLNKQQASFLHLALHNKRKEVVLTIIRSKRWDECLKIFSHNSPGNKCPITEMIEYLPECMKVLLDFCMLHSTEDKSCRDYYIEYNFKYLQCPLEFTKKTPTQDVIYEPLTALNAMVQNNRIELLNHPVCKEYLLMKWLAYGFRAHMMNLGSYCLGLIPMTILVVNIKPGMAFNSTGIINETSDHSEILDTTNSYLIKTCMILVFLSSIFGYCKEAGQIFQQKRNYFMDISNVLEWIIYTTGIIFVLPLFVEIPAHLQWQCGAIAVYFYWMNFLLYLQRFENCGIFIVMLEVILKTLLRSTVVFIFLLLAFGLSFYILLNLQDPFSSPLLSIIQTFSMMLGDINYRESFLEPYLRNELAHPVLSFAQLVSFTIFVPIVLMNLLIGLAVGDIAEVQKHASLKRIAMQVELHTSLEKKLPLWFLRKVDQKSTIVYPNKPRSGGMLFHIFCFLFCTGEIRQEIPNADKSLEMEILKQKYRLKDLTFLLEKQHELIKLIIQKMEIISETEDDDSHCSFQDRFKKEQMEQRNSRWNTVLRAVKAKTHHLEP
Sequence of Transient receptor potential cation channel subfamily A member 1 (Rattus norvegicus, UniProt Q6RI86) (Q6RI86 whole entry): as the sequence (Q6RI86 whole entry) above
Sequence of Transient receptor potential cation channel subfamily M member 8 (Homo sapiens) (Q7Z2W7 whole entry, looked up): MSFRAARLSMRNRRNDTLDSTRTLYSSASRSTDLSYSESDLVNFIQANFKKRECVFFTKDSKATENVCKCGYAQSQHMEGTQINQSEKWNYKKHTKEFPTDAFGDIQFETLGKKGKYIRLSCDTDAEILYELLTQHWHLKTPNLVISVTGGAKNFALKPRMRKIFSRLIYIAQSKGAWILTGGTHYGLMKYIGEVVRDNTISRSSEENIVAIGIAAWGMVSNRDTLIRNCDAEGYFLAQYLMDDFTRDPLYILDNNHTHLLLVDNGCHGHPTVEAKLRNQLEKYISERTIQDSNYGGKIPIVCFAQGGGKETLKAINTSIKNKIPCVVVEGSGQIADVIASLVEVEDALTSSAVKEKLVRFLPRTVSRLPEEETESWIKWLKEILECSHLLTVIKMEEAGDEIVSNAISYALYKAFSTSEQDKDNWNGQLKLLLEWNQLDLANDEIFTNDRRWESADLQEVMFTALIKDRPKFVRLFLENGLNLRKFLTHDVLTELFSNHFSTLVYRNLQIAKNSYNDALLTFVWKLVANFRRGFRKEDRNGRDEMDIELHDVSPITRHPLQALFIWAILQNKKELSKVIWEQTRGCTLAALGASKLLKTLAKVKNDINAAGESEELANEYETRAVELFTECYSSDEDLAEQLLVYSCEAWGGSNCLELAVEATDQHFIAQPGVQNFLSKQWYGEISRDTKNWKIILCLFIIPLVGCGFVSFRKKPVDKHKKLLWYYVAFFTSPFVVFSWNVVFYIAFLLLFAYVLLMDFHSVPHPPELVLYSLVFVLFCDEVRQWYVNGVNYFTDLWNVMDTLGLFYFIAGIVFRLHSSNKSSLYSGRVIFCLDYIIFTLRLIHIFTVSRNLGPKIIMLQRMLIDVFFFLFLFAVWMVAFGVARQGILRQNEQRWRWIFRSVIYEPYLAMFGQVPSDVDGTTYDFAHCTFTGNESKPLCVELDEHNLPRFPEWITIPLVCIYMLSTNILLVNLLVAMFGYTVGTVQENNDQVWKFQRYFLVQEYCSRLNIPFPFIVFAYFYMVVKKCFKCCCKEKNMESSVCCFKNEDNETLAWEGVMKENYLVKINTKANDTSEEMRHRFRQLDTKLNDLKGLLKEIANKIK
Sequence of Transient receptor potential cation channel subfamily V member 1 (Homo sapiens) (Q8NER1 whole entry): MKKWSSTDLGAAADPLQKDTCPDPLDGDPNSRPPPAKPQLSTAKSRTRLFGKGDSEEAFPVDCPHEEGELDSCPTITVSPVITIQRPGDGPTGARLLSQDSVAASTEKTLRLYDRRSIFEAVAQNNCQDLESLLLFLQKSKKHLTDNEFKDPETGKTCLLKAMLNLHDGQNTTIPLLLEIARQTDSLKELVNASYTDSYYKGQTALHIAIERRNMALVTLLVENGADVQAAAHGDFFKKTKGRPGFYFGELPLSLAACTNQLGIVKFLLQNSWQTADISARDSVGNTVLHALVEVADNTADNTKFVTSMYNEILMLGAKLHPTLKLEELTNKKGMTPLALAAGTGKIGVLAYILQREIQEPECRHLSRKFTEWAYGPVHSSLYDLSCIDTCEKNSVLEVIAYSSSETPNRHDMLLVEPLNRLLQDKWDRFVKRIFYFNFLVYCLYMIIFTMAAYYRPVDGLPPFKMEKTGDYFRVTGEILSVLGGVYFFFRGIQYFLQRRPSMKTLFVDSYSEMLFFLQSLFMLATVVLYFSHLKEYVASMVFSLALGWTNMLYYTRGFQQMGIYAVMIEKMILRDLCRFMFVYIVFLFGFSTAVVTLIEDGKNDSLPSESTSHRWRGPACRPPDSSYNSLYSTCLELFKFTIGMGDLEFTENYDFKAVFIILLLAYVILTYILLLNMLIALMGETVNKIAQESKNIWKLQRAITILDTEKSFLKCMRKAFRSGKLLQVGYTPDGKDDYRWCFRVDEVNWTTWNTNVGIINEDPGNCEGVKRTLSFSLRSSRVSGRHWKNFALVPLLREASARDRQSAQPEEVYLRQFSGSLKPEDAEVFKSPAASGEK
Sequence of Transient receptor potential cation channel subfamily V member 4 (Homo sapiens) (Q9HBA0 whole entry): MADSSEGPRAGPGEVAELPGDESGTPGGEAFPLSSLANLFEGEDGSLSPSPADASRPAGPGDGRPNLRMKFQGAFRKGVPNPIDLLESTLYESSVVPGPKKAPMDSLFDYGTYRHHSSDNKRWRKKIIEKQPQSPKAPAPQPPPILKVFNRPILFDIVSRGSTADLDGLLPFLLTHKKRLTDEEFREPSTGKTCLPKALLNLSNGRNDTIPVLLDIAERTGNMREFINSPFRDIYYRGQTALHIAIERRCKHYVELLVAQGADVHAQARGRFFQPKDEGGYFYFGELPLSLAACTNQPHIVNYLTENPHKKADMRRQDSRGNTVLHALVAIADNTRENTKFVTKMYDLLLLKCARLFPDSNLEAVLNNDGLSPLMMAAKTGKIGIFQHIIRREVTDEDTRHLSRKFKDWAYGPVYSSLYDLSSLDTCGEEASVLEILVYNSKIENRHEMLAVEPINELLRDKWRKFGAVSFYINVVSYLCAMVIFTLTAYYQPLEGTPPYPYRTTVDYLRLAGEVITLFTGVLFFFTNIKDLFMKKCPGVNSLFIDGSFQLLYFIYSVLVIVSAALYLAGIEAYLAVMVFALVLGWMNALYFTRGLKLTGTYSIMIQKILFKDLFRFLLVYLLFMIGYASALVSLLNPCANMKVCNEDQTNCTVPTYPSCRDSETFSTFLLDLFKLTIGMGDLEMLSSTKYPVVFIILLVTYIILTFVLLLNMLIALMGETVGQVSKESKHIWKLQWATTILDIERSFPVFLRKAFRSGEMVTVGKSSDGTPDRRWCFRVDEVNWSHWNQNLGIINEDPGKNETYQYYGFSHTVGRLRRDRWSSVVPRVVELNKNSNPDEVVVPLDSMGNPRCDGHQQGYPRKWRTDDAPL

| SMILES | pEC50 [1] | pEC50 [2] | EC50 [2] | also measured |
| --- | --- | --- | --- | --- |
| O=C(NCc1ccccc1)c1cnc(N2CCN(C(=O)c3c(F)cccc3F)CC2)nc1NC1CC1 | 6.73 | 7.57 |  |  |
| CC(C)CNc1nc(N2CCN(Cc3ccccc3)CC2)ncc1C(=O)NCc1cccnc1 | 6.67 | 7.31 |  |  |
| CC(C)CNc1nc(N2CCN(CC3CCCOC3)CC2)ncc1C(=O)NCc1ccccc1 (stereo not given) | 7.01 | 7.64 |  | solubility [3]: 6.4 µM (≈ 2.99 µg/mL); inhibition [4]: < 10%; inhibition [5]: < 10%; inhibition [6]: < 10%; inhibition [7]: < 10%; inhibition [8]: < 10%; Activity [9]: inactive; Activity [10]: inactive; Activity [11]: inactive; Activity [12]: inactive; Activity [13]: inactive; Activity [14]: inactive; Activity (Mus musculus [15]): Active; Activity (Mus musculus [16]): inactive; Activity (Mus musculus [17]): inactive |
| COCCNC(=O)c1cnc(N2CCN(Cc3ccccc3)CC2)nc1NCC(C)C | 6.24 |  | Not Active |  |
| CC(C)CNc1nc(N2CCN(Cc3ccccc3)CC2)ncc1C(=O)NCc1ccccc1 | 6.76 | 7.10 |  |  |
| O=C(NCc1ccccc1)c1cnc(N2CCN(CC3CCCOC3)CC2)nc1NC1CC1 (stereo not given) | 6.07 | 6.96 |  |  |
| O=C(NCc1ccccc1)c1cnc(N2CCN(C(=O)c3ccccc3)CC2)nc1NC1CC1 | 5.25 |  | Not Active |  |
| CCCCN1CCN(c2ncc(C(=O)NCc3ccccc3)c(NC3CC3)n2)CC1 |  |  | Not Active | activation [18]: 30% |
| CC(C)CNc1nc(N2CCN(Cc3ccccc3)CC2)ncc1C(=O)NCc1ccccn1 | 5.65 |  | Not Active |  |
| O=C(NCc1ccccc1)c1cnc(N2CCN(Cc3ccccc3)CC2)nc1NC1CC1 | 6.33 |  | Not Active |  |
